Experimental data taken from PMC10827958, “Identification of a novel thermostable transaminase and its application in L-phosphinothricin biosynthesis” (Applied Microbiology and Biotechnology, 2024).

Test system: T1, PtTA
T1 construct: PLP enzyme
Assay: initial rates, chiral HPLC of L-PPT, Michaelis-Menten fit
Assay type: biochemical, Zestomonas thermotolerans
Conditions: PPO 1-100 mM; co-substrate L-amino acid 100 mM (L-Glu presumably); 0.1 mM PLP; 50 mM phosphate pH 8.0; 55 °C

Question: CP(=O)(O)CCC(=O)C(=O)O [PPO, 4-(hydroxy(methyl)phosphoryl)-2-oxobutanoic acid] was tested. Which Km did it give?
Answer: Its Km is 35.9 mM.
